Test [1] concerns the target T1, hA1 AR (Homo sapiens, UniProt P30542).
T1 construct: expressed in transfected cells; host or cells: CHO cells (membranes)
T1 sequence (P30542 1-326): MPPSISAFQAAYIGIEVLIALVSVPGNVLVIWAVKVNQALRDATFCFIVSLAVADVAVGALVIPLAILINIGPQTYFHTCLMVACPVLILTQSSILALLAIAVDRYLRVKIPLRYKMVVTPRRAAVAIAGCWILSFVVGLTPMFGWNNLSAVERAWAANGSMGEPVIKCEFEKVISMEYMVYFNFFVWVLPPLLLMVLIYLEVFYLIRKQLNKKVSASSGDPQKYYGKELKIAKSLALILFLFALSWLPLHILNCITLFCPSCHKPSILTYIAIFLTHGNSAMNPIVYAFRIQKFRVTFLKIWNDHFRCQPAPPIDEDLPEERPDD
Briefly: [3H]DPCPX competition binding to hA1 CHO membranes. Particulars: for Binding experiments I% hA1: inhibition at 1 μM; for Ki: mean ± SEM of four assays, read-out: Binding experiments Ki hA1.

In test [2] the target is T2, hA2A AR (Homo sapiens, UniProt P29274).
T2 construct: expressed in transfected cells; host or cells: CHO cells (membranes)
T2 sequence (P29274 whole entry): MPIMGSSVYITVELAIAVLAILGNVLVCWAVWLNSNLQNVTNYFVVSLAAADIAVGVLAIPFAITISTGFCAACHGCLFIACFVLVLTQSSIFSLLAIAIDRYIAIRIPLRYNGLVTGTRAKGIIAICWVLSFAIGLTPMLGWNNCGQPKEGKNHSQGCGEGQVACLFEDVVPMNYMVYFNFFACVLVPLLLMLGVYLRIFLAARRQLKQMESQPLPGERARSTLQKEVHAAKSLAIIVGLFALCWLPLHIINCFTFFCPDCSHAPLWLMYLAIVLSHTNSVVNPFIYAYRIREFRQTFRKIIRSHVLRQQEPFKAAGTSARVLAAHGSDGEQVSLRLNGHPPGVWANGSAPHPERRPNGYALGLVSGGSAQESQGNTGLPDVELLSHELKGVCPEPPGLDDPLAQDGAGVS
Briefly: [3H]ZM241385 competition binding to hA2A CHO membranes. Particulars: [3H]ZM241385, hA2A CHO; for Binding experiments I% hA2A: inhibition at 1 μM; for Ki: mean ± SEM of four assays, read-out: Binding experiments Ki hA2A.

Test [3] concerns the target T3, hA2B AR (Homo sapiens, UniProt P29275).
T3 construct: expressed in transfected cells; host or cells: CHO cells
T3 sequence (P29275 1-332): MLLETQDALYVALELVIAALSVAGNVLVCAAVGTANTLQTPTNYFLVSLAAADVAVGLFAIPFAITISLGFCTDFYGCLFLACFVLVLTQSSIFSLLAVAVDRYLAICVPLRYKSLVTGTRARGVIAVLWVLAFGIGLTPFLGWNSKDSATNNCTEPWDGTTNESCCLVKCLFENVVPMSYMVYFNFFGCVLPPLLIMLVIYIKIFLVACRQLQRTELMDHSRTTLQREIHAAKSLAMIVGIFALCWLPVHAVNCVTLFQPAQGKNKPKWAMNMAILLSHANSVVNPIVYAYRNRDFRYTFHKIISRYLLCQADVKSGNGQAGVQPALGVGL
Briefly: cAMP assay in hA2B CHO cells stimulated by 200 nM NECA. As to conditions: read-out: cAMP assays I% hA2B. Format: cell-based. The method, then:
CHO cells transfected with hA2B AR subtypes were washed with phosphate-buffered saline, diluted trypsin and centrifuged for 10 min at 200 g. The cells (1 × 10^6 cells/assay) were suspended in 0.5 ml of incubation mixture (mM): NaCl 15, KCl 0.27, NaH2PO4 0.037, MgSO4 0.1, CaCl2 0.1, Hepes 0.01, MgCl2 1, glucose 0.5, pH 7.4 at 37 °C, 2 IU/ml adenosine deaminase and 4–(3-butoxy-4-methoxybenzyl)-2-imidazolidinone (Ro 20–1724) as phosphodiesterase inhibitor and preincubated for 10 min in a shaking bath at 37 °C. The potency of antagonists to the A2B AR was determined by the inhibition of NECA (200 nM)-induced cyclic AMP production. The reaction was terminated by the addition of cold 6% trichloroacetic acid (TCA). The TCA suspension was centrifuged at 2000 g for 10 min at 4 °C and the supernatant was extracted four times with water saturated diethyl ether. The final aqueous solution was tested for cyclic AMP levels by a competition protein binding assay. Samples of cyclic AMP standard (0–10 pmoles) were added to each test tube containing [^3H] cyclic AMP and incubation buffer (trizma base 0.1 M, aminophylline 8.0 mM, 2-mercaptoethanol 6.0 mM, pH 7.4). The binding protein prepared from beef adrenals was added to the samples previously incubated at 4 °C for 150 min, and, after the addition of charcoal, was centrifuged at 2000 g for 10 min. The clear supernatant was counted in a Scintillation Counter Packard Tri Carb 2810 TR with an efficiency of 58%.
(§1) The protein concentration was determined according to a Bio-Rad method[56] with bovine albumin as a standard reference. Inhibitory binding constant (Ki) values were calculated from those of IC50 according to Cheng & Prusoff equation Ki = IC50/(1 + [C*]/KD*), where [C*] is the concentration of the radioligand and KD* its dissociation constant. A weighted non-linear least-squares curve fitting program LIGAND[58] was used for computer analysis of inhibition experiments. IC50 values obtained in cyclic AMP assay were calculated by non-linear regression analysis using the equation for a sigmoid concentration–response curve (Graph-PAD Prism, San Diego, CA).
(Cyclic AMP is a second messenger, typically raised through Gs and lowered through Gi signalling.)

Test [4] has as its target T4, hA3 AR (Homo sapiens, UniProt P0DMS8).
T4 construct: expressed in transfected cells; host or cells: CHO cells (membranes)
T4 sequence (P0DMS8 1-318): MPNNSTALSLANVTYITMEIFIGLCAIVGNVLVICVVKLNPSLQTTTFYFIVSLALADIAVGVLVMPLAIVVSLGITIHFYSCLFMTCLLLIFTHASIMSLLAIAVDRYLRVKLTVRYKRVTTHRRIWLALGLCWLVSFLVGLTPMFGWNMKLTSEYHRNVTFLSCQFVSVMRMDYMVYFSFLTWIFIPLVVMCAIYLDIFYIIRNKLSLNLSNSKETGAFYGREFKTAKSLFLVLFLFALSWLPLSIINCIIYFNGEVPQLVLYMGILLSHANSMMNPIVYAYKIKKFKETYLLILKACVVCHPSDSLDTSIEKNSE
As to the kind of experiment: [125I]AB-MECA competition binding to hA3 CHO membranes. Particulars: for inhibition at 1 µM / inhibition: read-out: Binding experiments I% hA3, inhibition at 1 μM; for Ki: mean ± SEM of four assays, read-out: Binding experiments Ki hA3. Here is the method: All synthesized compounds were tested to evaluate their affinity at human A1, A2A and A3 ARs. Displacement experiments of [^3H]DPCPX (1 nM) to hA1 CHO membranes (50 µg of protein/assay) and at least 6–8 different concentrations of antagonists for 120 min at 25 °C in 50 mM Tris-HCl buffer pH 7.4 were performed. Non-specific binding was determined in the presence 1 µM of DPCPX (≤10% of the total binding). […] Competition binding experiments to hA3 CHO membranes (50 µg of protein/assay) were performed incubating 0.5 nM [^125I]AB-MECA, 50 mM Tris-HCl buffer, 10 mM MgCl2, 1 mM EDTA, pH 7.4 and at least 6–8 different concentrations of examined ligands for 60 min at 37 °C[54]. Non-specific binding was defined as binding in the presence of 1 µM AB-MECA and was about 20% of total binding. Bound and free radioactivity were separated by filtering the assay mixture through Whatman GF/B glass fiber filters by using a Brandel cell harvester. The filter bound radioactivity was counted by Scintillation Counter Packard Tri Carb 2810 TR with an efficiency of 58%.
as §1

Regarding `Cn1cc2nc(Nc3ccccc3)nc(N)c2n1` [Compound 8, 7-Amino-2-methyl-5-phenylamino-2H-pyrazolo[4,3-d]pyrimidine], the “Binding experiments I% hA1” value in test [1] is given as 1%. The “Binding experiments I% hA2A” value in test [2] is reported as 4%. Moreover, the inhibition at 1 µM in test [3] and in test [4] was 1% throughout.
The term Ki denotes a dissociation constant, usually derived from enzyme kinetics or from competition with a known ligand. For the molecule `Nc1nc(Nc2ccccc2)nc2cn(-c3ccccc3)nc12` [Compound 1, 7-Amino-5-phenylamino-2-phenyl-2H-pyrazolo[4,3-d]pyrimidine], the figures for the Ki in test [1], in test [2] and in test [4] were 67 ± 5 nM, 412 ± 37 nM and 13 ± 2 nM, respectively. Besides, the inhibition at 1 µM in test [3] worked out at 2%.
Turning to `Nc1nc(Nc2ccc(O)cc2)nc2cn(-c3ccccc3)nc12` [Compound 4, 7-Amino-5-(4-hydroxyphenyl)amino-2-phenyl-2H-pyrazolo[4,3-d]pyrimidine], the Ki in test [1] amounted to 481 ± 42 nM. The “Binding experiments I% hA2A” value in test [2] is listed as 40%. For the same molecule, the results for the inhibition at 1 µM in test [3] and in test [4] were 10% and 8%, respectively.
Consider `Nc1nc(N2CCN(C(=O)c3ccco3)CC2)nc2cn(-c3ccccc3)nc12` [Compound 20], for which the Ki in test [1] is 580 ± 47 nM. Further, the “Binding experiments I% hA2A” value in test [2] came to 16%. Also, the inhibition at 1 µM in test [3] is 2%. Besides, the inhibition in test [4] was 13%.
In the same order, the values of `Nc1nc(N2CCN(Cc3c(F)cc(F)cc3F)CC2)nc2cn(-c3ccccc3)nc12` [Compound 18, 7-Amino-5-(4-(2,4,6-trifluoro)benzylpiperazin-1-yl)-2-phenyl-2H-pyrazolo[4,3-d]pyrimidine] are 204 ± 18 nM, 34%, 1% and 39%.
Regarding `COc1ccc(CCNc2nc(N)c3nn(-c4ccccc4)cc3n2)cc1OC` [Compound 13, 7-Amino-5-[2-(3,4-dimethoxyphenyl)ethyl]amino-2-phenyl-2H-pyrazolo[4,3-d]pyrimidine], the Ki in test [1] came to 415 ± 39 nM; in test [2], 189 ± 18 nM. Further, the inhibition at 1 µM was 17% in test [3] and 22% in test [4].
`COc1ccc(Nc2nc(N)c3nn(-c4ccccc4)cc3n2)cc1` [Compound 2, 7-Amino-5-(4-methoxyphenyl)amino-2-phenyl-2H-pyrazolo[4,3-d]pyrimidine]: the “Binding experiments I% hA1” value in test [1] is recorded as 33%. The “Binding experiments I% hA2A” value in test [2] was found to be 8%. The inhibition at 1 µM in test [3] amounted to 1%. In test [4], the Ki stood at 27 ± 3 nM.
Turning to `Nc1nc(NCc2ccccc2)nc2cn(-c3ccccc3)nc12` [Compound 5, 7-Amino-5-benzylamino-2-phenyl-2H-pyrazolo[4,3-d]pyrimidine], the Ki in test [1] amounted to 25 ± 3 nM; in test [2] it was 123 ± 11 nM; in test [4], 28 ± 3 nM. For the same molecule, the inhibition at 1 µM in test [3] came to 2%.
On to `Nc1nc(N2CCN(C(=O)Cc3ccccc3)CC2)nc2cn(-c3ccccc3)nc12` [Compound 24, 7-Amino-2-phenyl-5-(4-phenylacetylpiperazin-1-yl)-2H-pyrazolo[4,3-d]pyrimidine], for which, in test [1], the inhibitory constant (Ki) was 429 ± 36 nM. Further, in test [2], the “Binding experiments I% hA2A” value came to 3%. Besides, the inhibition at 1 µM in test [3] was determined as 3%. Also, the inhibition in test [4] stood at 1%.
As for `Nc1nc(NCCCc2ccccc2)nc2cn(-c3ccccc3)nc12` [Compound 7, 7-Amino-5-(3-phenylpropyl)-2-phenyl-2H-pyrazolo[4,3-d]pyrimidines], the Ki in test [1] came to 785 ± 72 nM. For the same molecule, the “Binding experiments I% hA2A” value in test [2] is listed as 29%. Further, the inhibition at 1 µM in test [3] amounted to 1%; in test [4], 24%.
Turning to `Nc1nc(N2CCN(Cc3ccccc3)CC2)nc2cn(-c3ccccc3)nc12` [Compound 16, 7-Amino-5-(4-benzylpiperazin-1-yl)-2-phenyl-2H-pyrazolo[4,3-d]pyrimidine], in test [1], the Ki was determined as 162 ± 14 nM. The “Binding experiments I% hA2A” value in test [2] is given as 1%. In test [3], the inhibition at 1 µM turned out to be 1%. The inhibition in test [4] turned out to be 1%.
Regarding `CC(C)(C)CC(=O)N1CCN(c2nc(N)c3nn(-c4ccccc4)cc3n2)CC1` [Compound 23, 7-Amino-2-phenyl-5-(4-(3,3-dimethylbutiryl)piperazin-1-yl)-2H-pyrazolo[4,3-d]pyrimidine], the “Binding experiments I% hA1” value in test [1] is 29%. Besides, the “Binding experiments I% hA2A” value in test [2] is recorded as 2%. Further, the inhibition at 1 µM in test [3] is 2%. The inhibition in test [4] stood at 1%.
For `Nc1nc(N2CCN(CCc3ccccc3)CC2)nc2cn(-c3ccccc3)nc12` [Compound 17, 7-Amino-5-(4-phenylethylpiperazin-1-yl)-2-phenyl-2H-pyrazolo[4,3-d]pyrimidine], in test [1], the Ki turned out to be 518 ± 42 nM. Moreover, the “Binding experiments I% hA2A” value in test [2] was 40%. Further, the inhibition at 1 µM in test [3] was 1%. Also, the inhibition in test [4] came out at 40%.
Take `Nc1nc(NCCc2ccc(O)c(O)c2)nc2cn(-c3ccccc3)nc12` [Compound 14, 7-Amino-5-(3,4-dihydroxyphenethyl)amino-2-phenyl-2H-pyrazolo[4,3-d]pyrimidine]: the Ki was 71 ± 6 nM in test [1] and 238 ± 24 nM in test [2]. The inhibition at 1 µM is 1% in test [3] and 3% in test [4].
As to `COc1ccc(CCNc2nc(N)c3nn(-c4ccccc4)cc3n2)cc1` [Compound 11, 7-Amino-5-[2–(4-methoxyphenyl)ethyl]amino-2-phenyl-2H-pyrazolo[4,3-d]pyrimidine], in test [1], the inhibitory constant (Ki) came to 153 ± 11 nM. The “Binding experiments I% hA2A” value in test [2] is on record as 26%. The inhibition at 1 µM in test [3] came out at 1%; in test [4], 19%.
In the case of `Nc1nc(NCc2ccccc2)nc2cn(Cc3ccccc3)nc12` [Compound 10, 7-Amino-2-benzyl-5-benzylamino-2H-pyrazolo[4,3-d]pyrimidine], the “Binding experiments I% hA1” value in test [1] was determined as 19%. In test [2], the “Binding experiments I% hA2A” value is listed as 1%. In addition, the inhibition at 1 µM in test [3] and in test [4] was 1% each time.

Source of the values: PMC6009979, “The role of 5-arylalkylamino- and 5-piperazino- moieties on the 7-aminopyrazolo[4,3-d]pyrimidine core in affecting adenosine A1 and A2A receptor affinity and selectivity profiles” (Journal of Enzyme Inhibition and Medicinal Chemistry, 2017).
